Converted amounts (≈) assume the structure as drawn.
Legend:
Type in all cases: functional
[1] = tested on: Candida albicans; assay: Antifungal activity against Candida albicans 901 measured after 24 hrs by micro-broth dilution assay
[2] = tested on: Pichia kudriavzevii; assay: Antifungal activity against Candida krusei AS 2.1045 measured after 24 hrs by micro-broth dilution assay
[3] = tested on: [Candida] zeylanoides; assay: Antifungal activity against Candida zeylanoides CMGCC2.3739 measured after 24 hrs by micro-broth dilution assay; conditions: Dujonia zeylanoides
[4] = tested on: Candida parapsilosis; assay: Antifungal activity against Candida parapsilosis ATCC 22019 measured after 24 hrs by micro-broth dilution assay; conditions: Lodderomyces parapsilosis
[5] = tested on: Candida albicans; assay: Antifungal activity against Candida albicans ATCC SC5314 measured after 24 hrs by micro-broth dilution assay
[6] = tested on: Aspergillus fumigatus; assay: Antifungal activity against Aspergillus fumigatus CGMCC 3.7795 measured after 72 hrs by micro-broth dilution assay
[7] = tested on: Candida albicans; assay: Antifungal activity against Candida albicans CPCC400616 measured after 24 hrs by micro-broth dilution assay
[8] = tested on: Candida albicans; assay: Antifungal activity against fluconazole-resistant Candida albicans strain 904 measured after 24 hrs by micro-broth dilution assay
[9] = tested on: Cryptococcus neoformans; assay: Antifungal activity against Cryptococcus neoformans CGMCC2.3161 measured after 72 hrs by micro-broth dilution assay
[10] = tested on: Nakaseomyces glabratus; assay: Antifungal activity against clinical isolate Candida glabrata measured after 24 hrs by micro-broth dilution assay
[11] = tested on: Candida albicans; assay: Antifungal activity against fluconazole-resistant Candida albicans 17 measured after 24 hrs by micro-broth dilution assay
[12] = tested on: Candida albicans; assay: Antifungal activity against fluconazole-resistant Candida albicans 632 measured after 24 hrs by micro-broth dilution assay
[13] = tested on: Candida albicans; assay: Antifungal activity against fluconazole-resistant Candida albicans CaR measured after 24 hrs by micro-broth dilution assay

| Compound | MIC [1] [µg/mL] | MIC [2] [µg/mL] | MIC [3] [µg/mL] | MIC [4] [µg/mL] | MIC [5] [µg/mL] | MIC [6] [µg/mL] | MIC [7] [µg/mL] | MIC [8] [µg/mL] | MIC [9] [µg/mL] | MIC [10] [µg/mL] | MIC [11] [µg/mL] | MIC [12] [µg/mL] | MIC [13] [µg/mL] |
| --- | --- | --- | --- | --- | --- | --- | --- | --- | --- | --- | --- | --- | --- |
| COc1cccc(C[Se]C(Cn2ccnc2)c2ccc(F)cc2F)c1 (configuration not stated) | 8 (≈ 19.6 µM) | 2 (≈ 4.91 µM) | 1 (≈ 2.46 µM) | 0.5 (≈ 1.23 µM) | 0.13 (≈ 0.319 µM) | 2 (≈ 4.91 µM) | 0.06 (≈ 0.147 µM) | 16 (≈ 39.3 µM) | 0.5 (≈ 1.23 µM) | 1 (≈ 2.46 µM) | 16 (≈ 39.3 µM) | 2 (≈ 4.91 µM) | 4 (≈ 9.82 µM) |
| Fc1ccc(C(Cn2ccnc2)[Se]Cc2ccccc2Cl)c(F)c1 (configuration not stated) | 1 (≈ 2.43 µM) | 0.25 (≈ 0.607 µM) | 0.25 (≈ 0.607 µM) | 0.06 (≈ 0.146 µM) | 0.01 (≈ 0.0243 µM) | 2 (≈ 4.86 µM) | 0.25 (≈ 0.607 µM) | 0.5 (≈ 1.21 µM) | 0.5 (≈ 1.21 µM) | 1 (≈ 2.43 µM) | 1 (≈ 2.43 µM) | 0.5 (≈ 1.21 µM) | 2 (≈ 4.86 µM) |
| Fc1ccc(C[Se]C(Cn2ccnc2)c2ccc(Cl)cc2Cl)cc1 (configuration not stated) | 32 (≈ 74.7 µM) | 1 (≈ 2.34 µM) | 4 (≈ 9.34 µM) | 0.5 (≈ 1.17 µM) | 0.03 (≈ 0.0701 µM) | 2 (≈ 4.67 µM) | 0.03 (≈ 0.0701 µM) | 64 (≈ 149 µM) | 0.25 (≈ 0.584 µM) | 0.13 (≈ 0.304 µM) | 4 (≈ 9.34 µM) | 128 (≈ 299 µM) | 16 (≈ 37.4 µM) |
| COc1ccc(C[Se]C(Cn2ccnc2)c2ccc(Cl)cc2Cl)cc1 (configuration not stated) | 16 (≈ 36.3 µM) | 8 (≈ 18.2 µM) | 8 (≈ 18.2 µM) | 0.5 (≈ 1.14 µM) | 0.13 (≈ 0.295 µM) | 1 (≈ 2.27 µM) | 0.13 (≈ 0.295 µM) | 128 (≈ 291 µM) | 0.25 (≈ 0.568 µM) | 0.5 (≈ 1.14 µM) | 16 (≈ 36.3 µM) | 128 (≈ 291 µM) | 32 (≈ 72.7 µM) |
| Fc1ccc(C(Cn2ccnc2)[Se]Cc2ccc(Br)cc2)c(F)c1 (configuration not stated) | 2 (≈ 4.38 µM) | 1 (≈ 2.19 µM) | 0.25 (≈ 0.548 µM) | 0.25 (≈ 0.548 µM) | 0.13 (≈ 0.285 µM) | 1 (≈ 2.19 µM) | 0.25 (≈ 0.548 µM) | 2 (≈ 4.38 µM) | 0.5 (≈ 1.1 µM) | 2 (≈ 4.38 µM) | 2 (≈ 4.38 µM) | 8 (≈ 17.5 µM) | 64 (≈ 140 µM) |
| Clc1ccc(C[Se]C(Cn2ccnc2)c2ccc(Cl)cc2Cl)c(Cl)c1 (configuration not stated) | 32 (≈ 66.8 µM) | 2 (≈ 4.17 µM) | 2 (≈ 4.17 µM) | 2 (≈ 4.17 µM) | 0.06 (≈ 0.125 µM) | 0.5 (≈ 1.04 µM) | 0.06 (≈ 0.125 µM) | 8 (≈ 16.7 µM) | 0.5 (≈ 1.04 µM) | 0.25 (≈ 0.522 µM) | 16 (≈ 33.4 µM) | 64 (≈ 134 µM) | 128 (≈ 267 µM) |
| Clc1ccc(C(Cn2ccnc2)[Se]Cc2ccccc2)c(Cl)c1 (configuration not stated) | 1 (≈ 2.44 µM) | 0.5 (≈ 1.22 µM) | 0.5 (≈ 1.22 µM) | 0.25 (≈ 0.609 µM) | 0.02 (≈ 0.0488 µM) | 0.5 (≈ 1.22 µM) | 0.06 (≈ 0.146 µM) | 0.5 (≈ 1.22 µM) | 0.5 (≈ 1.22 µM) | 0.5 (≈ 1.22 µM) | 4 (≈ 9.75 µM) | 2 (≈ 4.88 µM) | 4 (≈ 9.75 µM) |
| Cc1ccc(C[Se]C(Cn2ccnc2)c2ccc(F)cc2F)cc1 (configuration not stated) | 1 (≈ 2.56 µM) | 2 (≈ 5.11 µM) | 0.5 (≈ 1.28 µM) | 0.25 (≈ 0.639 µM) | 0.06 (≈ 0.153 µM) | 1 (≈ 2.56 µM) | 0.25 (≈ 0.639 µM) | 4 (≈ 10.2 µM) | 0.5 (≈ 1.28 µM) | 1 (≈ 2.56 µM) | 2 (≈ 5.11 µM) | 16 (≈ 40.9 µM) | 16 (≈ 40.9 µM) |
| COc1ccc(C[Se]C(Cn2ccnc2)c2ccc(F)cc2F)cc1 (configuration not stated) | 8 (≈ 19.6 µM) | 2 (≈ 4.91 µM) | 2 (≈ 4.91 µM) | 0.25 (≈ 0.614 µM) | 0.13 (≈ 0.319 µM) | 1 (≈ 2.46 µM) | 0.25 (≈ 0.614 µM) | 2 (≈ 4.91 µM) | 0.5 (≈ 1.23 µM) | 0.5 (≈ 1.23 µM) | 8 (≈ 19.6 µM) | 8 (≈ 19.6 µM) | 8 (≈ 19.6 µM) |
| COc1cc(C[Se]C(Cn2ccnc2)c2ccc(Cl)cc2Cl)cc(OC)c1 (configuration not stated) | 4 (≈ 8.51 µM) | 8 (≈ 17 µM) | 1 (≈ 2.13 µM) | 0.5 (≈ 1.06 µM) | 0.13 (≈ 0.276 µM) | 1 (≈ 2.13 µM) | 0.13 (≈ 0.276 µM) | 128 (≈ 272 µM) | 0.5 (≈ 1.06 µM) | 0.25 (≈ 0.532 µM) | 32 (≈ 68 µM) | 32 (≈ 68 µM) | 4 (≈ 8.51 µM) |
| Cc1cccc(C[Se]C(Cn2ccnc2)c2ccc(Cl)cc2Cl)c1 (configuration not stated) | 2 (≈ 4.71 µM) | 4 (≈ 9.43 µM) | 16 (≈ 37.7 µM) | 1 (≈ 2.36 µM) | 0.03 (≈ 0.0707 µM) | 8 (≈ 18.9 µM) | 0.03 (≈ 0.0707 µM) | 2 (≈ 4.71 µM) | 0.25 (≈ 0.589 µM) | 0.5 (≈ 1.18 µM) | 4 (≈ 9.43 µM) | 2 (≈ 4.71 µM) | 4 (≈ 9.43 µM) |
| Cc1cccc(C[Se]C(Cn2ccnc2)c2ccc(F)cc2F)c1 (configuration not stated) | 4 (≈ 10.2 µM) | 1 (≈ 2.56 µM) | 1 (≈ 2.56 µM) | 0.25 (≈ 0.639 µM) | 0.06 (≈ 0.153 µM) | 2 (≈ 5.11 µM) | 0.13 (≈ 0.332 µM) | 1 (≈ 2.56 µM) | 0.5 (≈ 1.28 µM) | 1 (≈ 2.56 µM) | 8 (≈ 20.4 µM) | 16 (≈ 40.9 µM) | 2 (≈ 5.11 µM) |
| Fc1ccc(C[Se]C(Cn2ccnc2)c2ccc(F)cc2F)cc1 (configuration not stated) | 4 (≈ 10.1 µM) | 1 (≈ 2.53 µM) | 1 (≈ 2.53 µM) | 0.25 (≈ 0.632 µM) | 0.03 (≈ 0.0759 µM) | 2 (≈ 5.06 µM) | 0.06 (≈ 0.152 µM) | 8 (≈ 20.2 µM) | 0.5 (≈ 1.26 µM) | 1 (≈ 2.53 µM) | 32 (≈ 81 µM) | 32 (≈ 81 µM) | 8 (≈ 20.2 µM) |
| COc1cc(C[Se]C(Cn2ccnc2)c2ccc(F)cc2F)cc(OC)c1 (configuration not stated) | 2 (≈ 4.57 µM) | 8 (≈ 18.3 µM) | 1 (≈ 2.29 µM) | 8 (≈ 18.3 µM) | 0.13 (≈ 0.297 µM) | 8 (≈ 18.3 µM) | 0.5 (≈ 1.14 µM) | 4 (≈ 9.15 µM) | 8 (≈ 18.3 µM) | 0.5 (≈ 1.14 µM) | 8 (≈ 18.3 µM) | 8 (≈ 18.3 µM) | 128 (≈ 293 µM) |
| Cc1ccc(C[Se]C(Cn2ccnc2)c2ccc(Cl)cc2Cl)cc1C (configuration not stated) | 32 (≈ 73 µM) | 128 (≈ 292 µM) | 128 (≈ 292 µM) | > 128 | 4 (≈ 9.13 µM) | 4 (≈ 9.13 µM) | 0.25 (≈ 0.57 µM) | 128 (≈ 292 µM) | 0.5 (≈ 1.14 µM) | 0.5 (≈ 1.14 µM) | 8 (≈ 18.3 µM) | 16 (≈ 36.5 µM) | 128 (≈ 292 µM) |
| Fc1cccc(C[Se]C(Cn2ccnc2)c2ccc(Cl)cc2Cl)c1 (configuration not stated) | 0.25 (≈ 0.584 µM) | 2 (≈ 4.67 µM) | 1 (≈ 2.34 µM) | 0.02 (≈ 0.0467 µM) | 0.03 (≈ 0.0701 µM) | 2 (≈ 4.67 µM) | 0.03 (≈ 0.0701 µM) | 0.25 (≈ 0.584 µM) | 0.25 (≈ 0.584 µM) | 0.5 (≈ 1.17 µM) | 0.5 (≈ 1.17 µM) | 1 (≈ 2.34 µM) | 1 (≈ 2.34 µM) |
| Fc1ccc(C(Cn2ccnc2)[Se]Cc2ccc(Cl)cc2)c(F)c1 (configuration not stated) | 8 (≈ 19.4 µM) | 0.5 (≈ 1.21 µM) | 1 (≈ 2.43 µM) | 0.13 (≈ 0.316 µM) | 0.03 (≈ 0.0729 µM) | 1 (≈ 2.43 µM) | 0.5 (≈ 1.21 µM) | 2 (≈ 4.86 µM) | 0.5 (≈ 1.21 µM) | 1 (≈ 2.43 µM) | 8 (≈ 19.4 µM) | 64 (≈ 155 µM) | 16 (≈ 38.9 µM) |
| COc1cc(Br)c(C[Se]C(Cn2ccnc2)c2ccc(Cl)cc2Cl)cc1OC (configuration not stated) | 128 (≈ 233 µM) | > 128 | > 128 | > 128 | 0.03 (≈ 0.0546 µM) | 16 (≈ 29.1 µM) | 0.25 (≈ 0.455 µM) | 32 (≈ 58.3 µM) | 0.5 (≈ 0.91 µM) | 0.5 (≈ 0.91 µM) | > 128 | > 128 | 128 (≈ 233 µM) |
| Fc1ccc(C(Cn2ccnc2)[Se]Cc2ccccc2)c(F)c1 (configuration not stated) | 2 (≈ 5.3 µM) | 0.25 (≈ 0.663 µM) | 0.5 (≈ 1.33 µM) | 0.13 (≈ 0.345 µM) | 0.13 (≈ 0.345 µM) | 1 (≈ 2.65 µM) | 0.25 (≈ 0.663 µM) | 64 (≈ 170 µM) | 0.5 (≈ 1.33 µM) | 1 (≈ 2.65 µM) | 8 (≈ 21.2 µM) | 4 (≈ 10.6 µM) | 4 (≈ 10.6 µM) |
